Earlier results in article PMC3314724 (Journal of Molecular Modeling, 2011).

How the values were obtained:
FPR1 = FPR1 agonist class, peptide derivatives

boc-cis-4-mer-captomethyl-Pro-Leu-Phe-OMe [boc-cis-4-mercaptomethyl-PLF-OMe]
Observed value (activity class) (FPR1): Active

N-formyl-Met-Leu-Phe [fMLF]
Observed value (activity class) (FPR1): Active | EC50 (human neutrophils): ~0.5 nM

N-formyl-Met-Leu-Ψ(COO) Phe-NHBzl [fMLΨ(COO)F-NHBzl]
Observed value (activity class) (FPR1): Active

N-formyl-Met-Leu-Phe-OMe [fMLF-OMe]
Observed value (activity class) (FPR1): Active
